Reference: US7084158B2, “Substituted propargylamines” (Bayer Cropscience S.A., priority 2001, dated 2006)

Experiments:
Type in all cases: in vivo
Parameters in all cases: key: compounds were considered to be active when, at a concentration of 500 ppm or less, they had an activity on the harmful organisms of 50% or more
Carpocapsa pomonella = test: Example I: insect diet and L1 larvae sprayed, codling moth mortality; details: 500 ppm or less, after 8 days
Description: Ten L1 larvae of the codling moth (Carpocapsa pomonella) were placed into a Petri dish filled with insect diet. Insect diet and the larvae used were then sprayed with an aqueous solution of the formulated compound to be examined. The Petri dish was then closed with a lid. After 8 days of storage at about 23° C., the effect of the compound on the larvae was determined (mortality). The compounds of the following examples were active: 60, 70, 1002, 1005.

Ctenocephalides felis = test: Example M: cat fleas fed with treated cattle blood, mortality; details: 500 ppm or less; adult fleas fed blood-preparation mixture; after 48 hours
Description: The formulated compound was mixed with defibrinated cattle blood. 10 adult cat fleas (Ctenocephalides felis) were fed with this blood-preparation mixture. After 48 hours at about 38° C., the effect of the compound on the fleas was determined (mortality). The compounds of the following examples were active: 70, 1002, 1004, 1005, 1036, 60, 197, 1057.

Plutella maculipennis [1] = test: Example P: dipped cabbage leaf, diamondback moth larvae; details: 500 ppm or less, after 3 days
Description: A cabbage leaf was dipped for about 5 seconds into an aqueous solution of the formulated compound to be examined. After drying, the cabbage leaf treated in this manner was transferred into a container and populated with 10 larvae of the diamondback moth (Plutella maculipennis). The container was then closed with a lid. After 3 days of storage at about 23° C., the effect of the compound on the larvae was determined. The following examples were active: 1036, 70, 60, 209.

Heliothis virescens = test: Example V: dipped freeze-dried diet cube, tobacco budworm L2 larvae mortality; details: 500 ppm or less, after 4 days
Description: Insect diet (as freeze-dried cube) was dipped into an aqueous solution of the formulated compound to be examined and then placed into a Petri dish. 10 L2 larvae of the American tobacco budworm (Heliothis virescens) were then added. The Petri dish was then closed with a lid. After 4 days of storage at about 23° C., the mortality among the larvae was determined. The following examples were active: 1036, 60.

Plutella maculipennis [2] = test: Example W: cabbage plant, root-systemic activity on diamondback moth larvae; details: 500 ppm or less; cabbage plant in treated water, populated after one week; after 3 days
Description: 2.4 ml of an aqueous solution of the formulated compound to be examined were pipetted into a bottle filled with 21.6 ml of water. A 14-day-old cabbage plant was transferred into the bottle. After one week, the plant was populated with 5 larvae of the diamondback moth (Plutella maculipennis). Plants and animals were then stored in a climatized chamber (23° C., 40–60% relative atmospheric humidity). After 3 days of storage, the root-systemic activity of the compound on the larvae was determined (mortality). The following examples were active: 1036, 70, 60.

Spodoptera exigua = test: Example Y: cotton plants sprayed, cut leaves, sugar beet armyworm mortality; details: 500 ppm or less, leaves cut after drying, L2 larvae, after 4 days
Description: Cotton plants were sprayed with an aqueous solution of the formulated compound to be examined. After drying, leaves were cut off, placed into a Petri dish and populated with 5 L2 larvae of the sugar beet armyworm (Spodoptera exigua). After 4 days of storage at about 23° C., the mortality among the larvae was determined. The following examples were active: 1036, 70, 60, 1047, 197.

CC1CCN(CC#Cc2cc(C(F)(F)F)cc(C(F)(F)F)n2)CC1 [Example 60]
active: effect on the larvae (mortality) (Carpocapsa pomonella) | effect on the fleas (mortality) (Ctenocephalides felis) | effect on the larvae (Plutella maculipennis [1]) | mortality among the larvae (Heliothis virescens) | root-systemic activity on the larvae (mortality) (Plutella maculipennis [2]) | mortality among the larvae (Spodoptera exigua)
